Literature values in patent US12685722B2, “Compositions of matter and pharmaceutical compositions” (Atai Therapeutics, Inc., priority 2020, dated 2026).

## CN(C)CCc1c[nH]c2cccc(O)c12 [psilocin]
  in vivo half-life: about 50 minutes
In vivo
  psychedelic experiences lasting: 4 to 6 h
